The values that follow come from US10227561B2, “Methods and compositions for targeting progenitor cell lines” (Mandala Biosciences, LLC, priority 2012, dated 2019).

Read-outs that look alike come from different tables or passages of the source.

Test [1] deals with somatic cells. The conditions noted are these: cited from earlier work.
The subject of test [2] is W10 progenitor cell line. The test can be described thus: Immunofluorescent staining of bound phage. It is filed as binding, human. The conditions noted are these: peptide display phage, 2×10^10 pfu/well, live cells, 2 h at 37° C. Here is the method:
The binding specificity of selected phages was determined by immunofluorescent staining of bound phage to the surface of W10 progenitor cell line. Cells were plated at 100,000 cells/well in 24 well plates and incubated overnight. Phages at 2×10^10 pfu/well were diluted in 0.5 ml of W10 growth media supplemented with 2% BSA and incubated with live cells for 2 h at 37° C. Cells were washed as for the selection experiments and fixed by 4% paraformaldehyde for 20 min at RT. Cells were washed twice with PBS and permeabilized by ice-cold MeOH for 15 min on ice. After another two washes, cells were blocked with 5% goat serum in 2% BSA in PBS for 1 h at RT or overnight at 4° C. Cells were incubated with 1:700 dilution of rabbit anti-Fd bacteriophage antibody (Sigma, B7786) in 2% BSA in PBS for 1 h at RT. Cells were washed with 2 ml of 1% BSA in PBS three times, and incubated with 1:1000 dilution of goat anti-rabbit AlexaFluor568 conjugated antibody (Invitrogen, A11011) in 1% BSA in PBS for 1 h at RT. Cells were counterstained with DAPI at 0.1 μg/ml after final washes and photographed by an Olympus IX71 fluorescence microscope. Images were taken and processed using MetaMorph (version 7.5.6.0, Molecular Devices), ImageJ (version 1.45b, National Institute of Health) or Photoshop (version 9.0.2, Adobe) software.

The subject of test [3] is W10 cells. Description: Cell labeling with peptide targeted Qdot complexes (microscopy, flow cytometry). It counts as cell-based, human. As to the method: (§1) For flow cytometric analysis of labeled cells, cells were removed from the plates using TrypLE for 5 min at 37° C. Cells were resuspended in PBS, passed through strain top tubes and analyzed using flow cytometer. Control samples included unlabeled cells and cells labeled with untargeted Qdots. For each sample, 10,000 events were quantified. The LSRFortessa flow cytometer (BD Biosciences) was used with a violet laser excitation at 405 nm with a 605/23 bandpass filter to detect Qdot605 and the yellow laser excitation at 561 nm with a 670/30 bandpass filter to detect Qdot655. Cell autofluorescence was detected with the blue laser excited at 488 nm and a 510/25 bandpass filter.
2 μM of Qdot Streptavidin conjugate (Qdot605 ITK SA, Invitrogen, Q10001MP) were diluted in 100 μl of binding buffer (supplied with Qdot605 ITK SA) and incubated with 100-fold excess of biotinylated peptide on ice for 1 h. Uncoupled biotinylated peptide was removed from the mixture by incubating it with streptavidin magnetic beads equilibrated in PBS on ice for 30 min; placing the mixture on a magnetic stand to separate the beads and removed the complexes in solution. SA-beads were washed with PBS and combined with the recovered complexes. For control reactions, Qdots were incubated with binding buffer and treated in similar way as the peptide complexes. […]
In general terms: Flow cytometry measures light scatter and fluorescence of single cells or particles in a stream.

Test [4] relates to 10 embryonic progenitor cell lines. Description: Selectivity of Qdot peptide complexes, panel of progenitor lines. The conditions noted are these: out of the 10 lines; peptide targeted Qdots, flow cytometry. It is filed as cell-based, human. Here is the method:
(§2) FIG. 6. Selectivity of Qdot peptide complexes. Embryonic progenitor cell lines were labeled with Qdot complexes in their corresponding growth media and analyzed by flow cytometry as in (FIG. 5C). Percentage of labeled cells was calculated by setting up gates (allowing up to 1%) using the progenitor cell line labeled with untargeted Qdots and unlabeled cells. 10,000 events were recorded for each sample. Values are from triplicate experiments and shown as mean+/−standard error.
as §1
2 μM of Qdot Streptavidin conjugate (Qdot605 ITK SA, Invitrogen, Q10001MP) were diluted in 100 μl of binding buffer (supplied with Qdot605 ITK SA) and incubated with 100-fold excess of biotinylated peptide on ice for 1 h. […]

Test [5] has as its system hPS cells grown under mesoderm differentiation conditions. Description: Peptide targeted Qdot labeling of differentiating hPS cells. The conditions noted are these: 5 nM, 16 h at 37° C. It is filed as cell-based, human. Here is the method: (§3) FIG. 7A and FIG. 7B. Labeling of a differentiating pluripotent stem cells using peptide targeted Qdots. FIG. 7A: Selective peptide targeting of human embryonic stem cells (H9) that were differentiated into the three germ layers (see methods for protocols) for 6-8 days compared to undifferentiated control. Differentiated cells were incubated for 16 h at 37° C. with 5 nM of Qdot complexes, washed and imaged using a fluorescence microscope. Representative bright-field and fluorescent signal of W10 peptide Qdot complexes (red) are shown. FIG. 7B: Cells were stained with the following differentiation markers to verify the germ layer commitment: nestin for ectoderm, α-actinin for mesoderm, SOX17 for endoderm conditions and OCT3/4 for undifferentiated cells.
(§4) 2 μM of Qdot Streptavidin conjugate (Qdot605 ITK SA, Invitrogen, Q10001MP) were diluted in 100 μl of binding buffer (supplied with Qdot605 ITK SA) and incubated with 100-fold excess of biotinylated peptide on ice for 1 h. Uncoupled biotinylated peptide was removed from the mixture by incubating it with streptavidin magnetic beads equilibrated in PBS on ice for 30 min; placing the mixture on a magnetic stand to separate the beads and removed the complexes in solution. SA-beads were washed with PBS and combined with the recovered complexes. For control reactions, Qdots were incubated with binding buffer and treated in similar way as the peptide complexes. The concentration of Qdot-peptide complexes was estimated based on the final volume recovered. To label cells with the Qdot-complexes, 100,000 cells were plated on gelatin-coated wells of 24 well plates were incubated for 6 hours; 5 nM of Qdot-peptides in growth media was added to the cells and incubated for 16 h at 37° C. Cells were imaged after washes with PBS to remove the unbound Qdot-complexes.
(§5) For ectoderm differentiation conditions, embryoid bodies (EBs) were formed from colonies by manual techniques and grown in complete NPC media (DMEM-F12:Neurobasal media 1:1+50 μl/ml BIT9500 Serum substitute (Stemgent)+1% GlutaMax+1% penicillin-streptomycin+1 μl/ml B27 supplement (Invitrogen)+5 mM nicotinamide+5 μg/ml insulin+20 ng/ml EGF+20 ng/ml bFGF) in low attachment plates for 6 days; EBs were then plated on fibronectin-coated wells and grown for another 3 days. For mesoderm differentiation conditions, EBs were cultured as above except that media was DMEM-F12 with GlutaMax+20% FBS+1% NEAA+1% penicillin-streptomycin, and plated on 0.1% gelatin-coated wells. For endodermal differentiation conditions, undifferentiated H9 cells were transferred from colonies growing with MEFs to Geltrex™ (Life Technologies, Grand Island, N.Y.)-coated wells and grown for 2 days with MEF-conditioned media+4 ng/ml bFGF. From day 2, cells were grown for another 5 days in RPMI+0.5% FBS+100 ng/ml Activin A.

Test [6] relates to hPS cells differentiated using culture conditions for definitive endoderm. The description is as above. It is filed as cell-based, human. The following applies: definitive endoderm conditions (high activin A, low serum); 5 nM, 16 h at 37° C. As to the method: as §3, §4, §5
The test system of test [7] is W10 cells. Description: Peptide competition for phage binding. On the set-up: species or system human. The following applies: for specificity of binding (lack of competition with scrambled peptides): free peptide against scrambled peptide; for competition of the 2 peptides with each other for W10 cell binding: data not shown. As to the method: Cells were plated at 100,000 cells/well in 24 well plates and incubated overnight. The corresponding synthetic peptide for each peptide phage or control peptides (unrelated or scrambled sequence peptide) were pre-incubated with cells at 5 nM or 5 μM in W10 growth media supplemented with 2% BSA for 30 min at 4° C. Peptide phages at 2×10^10 pfu/well were added to the peptide dilution and incubated with live cells for 1 h at 4° C. Peptide phage bound to cells was detected by immunostaining and fluorescence microscopy using anti-phage antibody on fixed and permeabilized cells or quantified by titration of phages recovered from cell lysates. The percentage of recovered phage for the competition assay was normalized by the recovered phage in the no-peptide control. Duplicate independent experiments were performed for competition experiments.

Test [8] deals with 7PEND24 cell line. The test can be described thus: Qdot peptide complex labeling, flow cytometry. It counts as cell-based, human. The following applies: for cell labeling by peptide Qdot complexes: 7PEND24, in words. Here is the method:
as §2, §1, §4

Test [9] concerns E15 cells. Description: Qdot peptide complex labeling, flow cytometry. It is filed as cell-based, human. Here is the method: as §2, §1, §4
For test [10], the system named is 4D20.8 cells. Description: Qdot peptide complex labeling, flow cytometry. It counts as cell-based, human. Here is the method:
as §2, §1, §4

In test [11] the test system is SM30 cell line. Description: Qdot peptide complex labeling, flow cytometry. It is filed as cell-based, human. As to the method: as §2, §1, §4
Test [12] concerns MW1 cell line. The test can be described thus: Qdot peptide complex labeling, flow cytometry. It is filed as cell-based, human. As to the method: as §2, §1, §4

For `O=C(NCc1ccccc1)c1csc(Nc2ccncn2)n1` [Thiazovivin], the “increase of reprogramming efficiency” value in test [1] (Thiazovivin with the two previous chemicals (SB431412, PD0325901)) is on record as 200 fold.
As for `CCCC(CCC)C(=O)O` [valproic acid], the “increase of reprogramming efficiency” value in test [1] (compared to Yamanaka's traditional transcription factor method) is 100 fold.
As for “DWLWSFAPNVDT (FROM PHAGE DISPLAY LIBRARY) [W10 R3 18, W10 selected 12-mer; tested as M13 display phage, C-terminal biotinylated free peptide and streptavidin Qdot complex]”, the “binding of peptide phage detected by immunocytochemical staining” value (“binding of peptide phage detected” below) in [2] was “strongest binding”. The “percentage of cells labeled with peptide-Qdot complexes” value in test [3] (5 nM Qdot complexes, 16 h at 37° C., gated on untargeted Qdots) was found to be 90%. The “fluorescent shift of labeled cells” value in [3] (compared to untargeted Qdots) is “strong fluorescent shift”. Besides, the “number of embryonic progenitor cell lines with a high percentage of cells bound” value in test [4] is on record as 7. Further, the “cell labeling by Qdot complexes” value in test [5] was “a few small patches of labeled cells”; in [6], “a high percentage of cells were labeled”. Besides, the “specificity of binding (lack of competition with scrambled peptides)” value (shortened to “specificity of binding”) in test [7] is recorded as “sequence specific”.
With “GWVIDYDYYPMR (FROM PHAGE DISPLAY LIBRARY) [W10 R2 11, W10 selected 12-mer; tested as M13 display phage, C-terminal biotinylated free peptide and streptavidin Qdot complex]”, the “binding of peptide phage detected” value in test [2] is “strongest binding”. Also, the “cell labeling by peptide Qdot complexes” value in test [8] is reported as “high percentage binding”; in [9], “very little labeling”; in test [10], “very little labeling”. The “cell labeling by Qdot complexes” value in test [5] was “a few small patches of labeled cells”; in [6] it was “a high percentage of cells were labeled”. The “competition of the 2 peptides with each other for W10 cell binding” value in [7] is recorded as “can compete with each other”. In addition, the “specificity of binding” value in test [7] was “sequence specific”.
Turning to “GWYWETPLDMFN (FROM PHAGE DISPLAY LIBRARY) [W10 R2 21, W10 selected 12-mer; tested as M13 display phage, C-terminal biotinylated free peptide and streptavidin Qdot complex]”, in test [2], the “binding of peptide phage detected” value was “strongest binding”. Also, the entries for the “cell labeling by peptide Qdot complexes” value in test [8], in test [9] and in [10] were “high percentage binding”, “very little labeling” and “very little labeling”, respectively. Moreover, the entries for the “cell labeling by Qdot complexes” value in test [5] and in [6] were “a few small patches of labeled cells” and “a high percentage of cells were labeled”, respectively. Further, the “competition for peptide phage binding (recovered phage, percentage of no-peptide control)” value in [7] (C-terminal biotinylated free peptide at 5 nM or 5 μM, 4° C.) is recorded as “only significant at 5 μM”. Moreover, the “competition of the 2 peptides with each other for W10 cell binding” value in test [7] is reported as “can compete with each other”. For the same compound, the “specificity of binding” value in [7] is given as “sequence specific”.
Regarding “YEFDNLLNRTLW (FROM PHAGE DISPLAY LIBRARY) [W10 R2 1, W10 selected 12-mer; tested as M13 display phage, C-terminal biotinylated free peptide and streptavidin Qdot complex]”, the “binding of peptide phage detected” value in test [2] is on record as “strongest binding”. In addition, the cell labeling entry in test [8] (7PEND24), in test [11] and in test [12] was “more than 15%” in each case. The “cell labeling by peptide Qdot complexes” value in [9] and in test [10] was “no complex uptake” in each case. Further, the “cell labeling by Qdot complexes” value in test [5] is on record as “no labeling”; in test [6], “highly restricted to a small percentage of cells”.
